Legend:
[1] = test system: PLCγ; assay: phosphorylated signaling intermediaries after BCR stimulation: PLCγ; format: cell-based, mouse; conditions: all doses of inhibitor (15, 60, 490 nM), preincubation
Method: Cells are then washed 2× in serum free IMDM, and stimulated with 5 μg/ml of F(ab′)2 rabbit anti-mouse anti-IgG (H&L; Invitrogen) or 10 μg/ml anti-CD3-biotin (BD Biosciences)+20 μg/ml streptavidin (Sigma-Aldrich) for 2 minutes. Signaling was stopped by addition of 20% PFA to a final concentration of 2%, incubated at 37° C. for 15 minutes and resuspended in 100% ice-cold MeOH (directly from −80° C.). Cells were then placed on ice for 30 minutes and placed at −20° C. for storage. For analysis, cells were stained with B220-BV786, CD4-BV711, CD8-BV421, and/or pAKT-Alexa Fluor 647 (BD Biosciences), pPLCγ-PE (BD Biosciences), pBTK-BV421 (BD Biosciences) pSyk/Zap70-PE (BD Biosciences) at room temperature for 1 hour. Cells were washed 3 times and samples were acquired in triplicate on an LSR Fortessa X-20 (BD) with analysis using FlowJo software.

[2] = test system: CD4 T cells; assay: calcium mobilization of CD4 T cells after TCR aggregation; format: cell-based, mouse; conditions: 15 nM idelalisib, biotin-anti-CD3 and avidin
Method: For measurements of intracellular free calcium concentration ([Ca^2+]i), RBC-depleted single-cell suspended splenocytes were simultaneously stained with CD8-PE (BD Biosciences), CD4-APC (BioLegend) or B220-PE and loaded with Indo-1 acetoxymethyl (Molecular Probes), as described previously (Gauld, et al., Nat Immunol 6: 1160-1167). For analysis of ([Ca^2+]i), cells were suspended at 10×10^6 cells/ml in warm IMDM+2% FBS in a 500 ul volume. […] Mean relative ([Ca^2+]i) was monitored over time using an LSR Fortessa X-20 (BD) with analysis using FlowJo software.
Because a therapeutic effect of the inhibitor on VH125.NOD disease progression and survival was observed, reduction in autoantibody responses in PTEN^−/+×SHIP-1^−/+ cells, yet equivalent autoantibody responses by SHP-1^−/− and MD4 B cells in mice receiving 0.9375 mg/kg idelalisib-containing chow, we chose to focus our analysis on effects of this dose on T cell function. […] To analyze in vivo CD4 T cell responses, OT-II CD4 T cells were adoptively transferred into congenically mismatched recipients and immunized with OVA+P:IC as represented diagrammatically in FIG. 6C. […] The transferred OT-II cells that proliferated most underwent the greatest upregulation of CD44 (FIG. 6D).

## CC[C@H](Nc1ncnc2nc[nH]c12)c1nc2cccc(F)c2c(=O)n1-c1ccccc1 [idelalisib, 5-fluoro-3-phenyl-2-[(1S)-1-(7H-purin-6-ylamino)propyl]-4(3H)-quinazolinone]
[1]
  phosphorylation of PLCγ: significantly reduced
[2]
  calcium mobilization of CD4 T cells: failed to inhibit

Reference: patent US11701361B2, “p110-delta inhibitors treat and prevent autoimmunity while sparing the ability to mount an immune response to exogenous immunogens” (THE REGENTS OF THE UNIVERSITY OF COLORADO, priority 2018, dated 2023)
